Assay results from PubChem BioAssay AID256 (DTP/NCI, 2004).
Toxic doses and inconclusive results are not listed.

Test system: CD2F1 mice, L1210 leukemia ip, survival T/C
Assay: NCI In Vivo Anticancer Drug Screen. Data for tumor model L1210 Leukemia (intraperitoneal) in CD2F1 (CDF1) mice
Details: endpoint: mean survival time, higher = longer survival
Procedure, shortened: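 Activity against a transplanted murine tumor was judged by comparing the compound group with a vehicle group. The outcome in the treated animals was divided by that in the controls.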

[1] = dose: 50.0 mg/kg/injection, schedule: Q01DX009 (ip), vehicle: saline
[2] = dose: 100.0 mg/kg/injection, schedule: Q01DX009 (ip), vehicle: saline
[3] = dose: 200.0 mg/kg/injection, schedule: Q01DX009 (ip), vehicle: saline
[4] = dose: 100.0 mg/kg/injection, schedule: Q01DX009 (ip), vehicle: saline sonified

For `COC1C(O)CC(=O)OC(C)C/C=C/C=C/C(OC2CCC(N(C)C)C(C)O2)C(C)CC(CC=O)C1OC1OC(C)C(OC2CC(C)(O)C(O)C(C)O2)C(N(C)C)C1O` (stereo not given), which T/C (dose: 6.3 mg/kg/injection, schedule: Q03HX024 (ip), vehicle: saline) is on record?
The T/C was 100 % of control.

What about the T/C (dose: 12.5 mg/kg/injection, schedule: Q03HX008 (ip), vehicle: saline) of the same compound?
The T/C was 100 % of control.

And the T/C (dose: 12.5 mg/kg/injection, schedule: Q03HX024 (ip), vehicle: saline)?
Its T/C is 100 % of control.

What about the T/C (dose: 25.0 mg/kg/injection, schedule: Q03HX008 (ip), vehicle: saline) of the same compound?
Its T/C is 97 % of control.

What about the T/C (dose: 25.0 mg/kg/injection, schedule: Q03HX024 (ip), vehicle: saline) of the same compound?
Its T/C is 101 % of control.

What about the T/C [1] of the same compound?
Its T/C is 98 % of control.

What about the T/C (dose: 50.0 mg/kg/injection, schedule: Q03HX008 (ip), vehicle: saline) of the same compound?
The T/C was 100 % of control.

What about the T/C (dose: 50.0 mg/kg/injection, schedule: Q03HX024 (ip), vehicle: saline) of the same compound?
The T/C was 103 % of control.

And the T/C (dose: 100.0 mg/kg/injection, schedule: Q01DX001 (ip), vehicle: saline)?
The T/C was 102 % of control.

And the T/C [2]?
Its T/C is 96 % of control.

And the T/C (dose: 100.0 mg/kg/injection, schedule: Q03HX008 (ip), vehicle: saline)?
Its T/C is 97 % of control.

What about the T/C (dose: 100.0 mg/kg/injection, schedule: Q04DX003 (ip), vehicle: saline) of the same compound?
The T/C was 98 % of control.

And the T/C (dose: 200.0 mg/kg/injection, schedule: Q01DX001 (ip), vehicle: saline)?
The T/C was 98 % of control.

What about the T/C [3] of the same compound?
Its T/C is 102 % of control.

What about the T/C (dose: 200.0 mg/kg/injection, schedule: Q04DX003 (ip), vehicle: saline) of the same compound?
Its T/C is 100 % of control.

What about the T/C (dose: 400.0 mg/kg/injection, schedule: Q01DX001 (ip), vehicle: saline) of the same compound?
Its T/C is 106 % of control.

What about the T/C (dose: 400.0 mg/kg/injection, schedule: Q01DX009 (ip), vehicle: saline) of the same compound?
Its T/C is 98 % of control.

What about the T/C (dose: 400.0 mg/kg/injection, schedule: Q04DX003 (ip), vehicle: saline) of the same compound?
Its T/C is 100 % of control.

How did the T/C (dose: 12.5 mg/kg/injection, schedule: Q01DX005 (ip), vehicle: water) turn out when `NC(=O)c1ncn(C2OC(CO)C(O)C2O)c1C(N)=O` (stereo not given) was run?
Its T/C is 102 % of control.

And the T/C (dose: 25.0 mg/kg/injection, schedule: Q01DX005 (ip), vehicle: water)?
Its T/C is 112 % of control.

And the T/C (dose: 50.0 mg/kg/injection, schedule: Q01DX005 (ip), vehicle: water)?
The T/C was 107 % of control.

What about the T/C (dose: 100.0 mg/kg/injection, schedule: Q01DX005 (ip), vehicle: water) of the same compound?
Its T/C is 104 % of control.

What about the T/C (dose: 200.0 mg/kg/injection, schedule: Q01DX005 (ip), vehicle: water) of the same compound?
Its T/C is 112 % of control.

For `CC12CCC(=O)CC1CCC1C2CCC2(C)C(C(=O)O)CCC12` (stereo not given), which T/C (dose: 100.0 mg/kg/injection, schedule: Q01DX001 (ip), vehicle: saline with Tween-80) is on record?
Its T/C is 96 % of control.

And the T/C (dose: 200.0 mg/kg/injection, schedule: Q01DX001 (ip), vehicle: saline with Tween-80)?
Its T/C is 102 % of control.

What about the T/C (dose: 400.0 mg/kg/injection, schedule: Q01DX001 (ip), vehicle: saline with Tween-80) of the same compound?
Its T/C is 96 % of control.

With `O=NN(CS(=O)(=O)O)c1ccccc1` as the compound, how does the T/C [1] read?
Its T/C is 101 % of control.

And the T/C [2]?
Its T/C is 107 % of control.

What about the T/C [3] of the same compound?
Its T/C is 95 % of control.

Which results are given for `CS(=O)(=O)OCCC(=O)N1CCN(C(=O)CCOS(C)(=O)=O)CC1`?
T/C (dose: 4.0 mg/kg/injection, schedule: Q03HX024 (oral), vehicle: saline): 97 % of control; T/C (dose: 8.0 mg/kg/injection, schedule: Q03HX008 (ip), vehicle: saline): 120 % of control; T/C (dose: 8.0 mg/kg/injection, schedule: Q03HX008 (oral), vehicle: saline): 93 % of control; T/C (dose: 8.0 mg/kg/injection, schedule: Q03HX016 (oral), vehicle: saline): 94 % of control; T/C (dose: 8.0 mg/kg/injection, schedule: Q03HX024 (oral), vehicle: saline): 100 % of control; T/C (dose: 16.0 mg/kg/injection, schedule: Q01DX009 (oral), vehicle: saline): 101 % of control; T/C (dose: 16.0 mg/kg/injection, schedule: Q03HX008 (oral), vehicle: saline): 96 % of control; T/C (dose: 16.0 mg/kg/injection, schedule: Q03HX016 (ip), vehicle: saline): 169 % of control; T/C (dose: 16.0 mg/kg/injection, schedule: Q03HX016 (oral), vehicle: saline): 100 % of control; T/C (dose: 16.0 mg/kg/injection, schedule: Q03HX024 (ip), vehicle: saline): 200 % of control; T/C (dose: 16.0 mg/kg/injection, schedule: Q03HX024 (oral), vehicle: saline): 109 % of control; T/C (dose: 32.0 mg/kg/injection, schedule: Q01DX009 (ip), vehicle: saline): 165 % of control; T/C (dose: 32.0 mg/kg/injection, schedule: Q01DX009 (oral), vehicle: saline): 103 % of control; T/C (dose: 32.0 mg/kg/injection, schedule: Q03HX008 (ip), vehicle: saline): 182 % of control; T/C (dose: 32.0 mg/kg/injection, schedule: Q03HX008 (oral), vehicle: saline): 102 % of control; T/C (dose: 32.0 mg/kg/injection, schedule: Q03HX016 (ip), vehicle: saline): 207 % of control; T/C (dose: 32.0 mg/kg/injection, schedule: Q03HX016 (oral), vehicle: saline): 95 % of control; T/C (dose: 32.0 mg/kg/injection, schedule: Q03HX024 (ip), vehicle: saline): 168 % of control; T/C (dose: 32.0 mg/kg/injection, schedule: Q03HX024 (oral), vehicle: saline): 114 % of control; T/C (dose: 32.0 mg/kg/injection, schedule: Q04DX003 (oral), vehicle: saline): 100 % of control; T/C (dose: 64.0 mg/kg/injection, schedule: Q01DX001 (oral), vehicle: saline): 98 % of control; T/C (dose: 64.0 mg/kg/injection, schedule: Q01DX009 (ip), vehicle: saline): 208 % of control; T/C (dose: 64.0 mg/kg/injection, schedule: Q01DX009 (oral), vehicle: saline): 105 % of control; T/C (dose: 64.0 mg/kg/injection, schedule: Q03HX008 (oral), vehicle: saline): 106 % of control; T/C (dose: 64.0 mg/kg/injection, schedule: Q03HX016 (ip), vehicle: saline): 103 % of control; T/C (dose: 64.0 mg/kg/injection, schedule: Q03HX016 (oral), vehicle: saline): 97 % of control; T/C (dose: 64.0 mg/kg/injection, schedule: Q04DX003 (oral), vehicle: saline): 105 % of control; T/C (dose: 64.0 mg/kg/injection, schedule: Q08DX002 (oral), vehicle: saline): 92 % of control; T/C (dose: 128.0 mg/kg/injection, schedule: Q01DX001 (oral), vehicle: saline): 98 % of control; T/C (dose: 128.0 mg/kg/injection, schedule: Q01DX009 (ip), vehicle: saline): 124 % of control; T/C (dose: 128.0 mg/kg/injection, schedule: Q01DX009 (oral), vehicle: saline): 110 % of control; T/C (dose: 128.0 mg/kg/injection, schedule: Q04DX003 (ip), vehicle: saline): 193 % of control; T/C (dose: 128.0 mg/kg/injection, schedule: Q04DX003 (oral), vehicle: saline): 95 % of control; T/C (dose: 128.0 mg/kg/injection, schedule: Q08DX002 (ip), vehicle: saline): 194 % of control; T/C (dose: 128.0 mg/kg/injection, schedule: Q08DX002 (oral), vehicle: saline): 90 % of control; T/C (dose: 256.0 mg/kg/injection, schedule: Q01DX001 (ip), vehicle: saline): 166 % of control; T/C (dose: 256.0 mg/kg/injection, schedule: Q01DX001 (oral), vehicle: saline): 94 % of control; T/C (dose: 256.0 mg/kg/injection, schedule: Q01DX009 (oral), vehicle: saline): 110 % of control; T/C (dose: 256.0 mg/kg/injection, schedule: Q04DX003 (ip), vehicle: saline): 181 % of control; T/C (dose: 256.0 mg/kg/injection, schedule: Q04DX003 (oral), vehicle: saline): 100 % of control; T/C (dose: 256.0 mg/kg/injection, schedule: Q08DX002 (ip), vehicle: saline): 228 % of control; T/C (dose: 256.0 mg/kg/injection, schedule: Q08DX002 (oral), vehicle: saline): 96 % of control; T/C (dose: 512.0 mg/kg/injection, schedule: Q01DX001 (ip), vehicle: saline): 89 % of control; T/C (dose: 512.0 mg/kg/injection, schedule: Q01DX001 (oral), vehicle: saline): 96 % of control; T/C (dose: 512.0 mg/kg/injection, schedule: Q04DX003 (ip), vehicle: saline): 103 % of control; T/C (dose: 512.0 mg/kg/injection, schedule: Q08DX002 (oral), vehicle: saline): 94 % of control

What does the source list for `CN1C(=O)CN=C(c2ccccn2)c2cc(Cl)ccc21`?
T/C [4]: 97 % of control; T/C (dose: 200.0 mg/kg/injection, schedule: Q01DX009 (ip), vehicle: saline sonified): 90 % of control; T/C (dose: 400.0 mg/kg/injection, schedule: Q01DX009 (ip), vehicle: saline sonified): 102 % of control

Which T/C (dose: 25.0 mg/kg/injection, schedule: Q01DX009 (ip), vehicle: saline sonified) does the source give for `S=c1nc(-c2ccncc2)[nH][nH]1` here?
The T/C was 107 % of control.

And the T/C (dose: 50.0 mg/kg/injection, schedule: Q01DX009 (ip), vehicle: saline sonified)?
Its T/C is 98 % of control.

What about the T/C [4] of the same compound?
Its T/C is 107 % of control.

What about the T/C (dose: 100.0 mg/kg/injection, schedule: Q04DX003 (ip), vehicle: saline with Tween-80) of the same compound?
The T/C was 100 % of control.

With `O=C(/C=C/c1ccccc1)N/N=C/c1ccccc1Cl` as the compound, how does the T/C (dose: 50.0 mg/kg/injection, schedule: Q01DX009 (ip), vehicle: Klucel (hydroxypropylcellulose) (HPC)) read?
Its T/C is 105 % of control.

And the T/C (dose: 100.0 mg/kg/injection, schedule: Q01DX009 (ip), vehicle: Klucel (hydroxypropylcellulose) (HPC))?
Its T/C is 105 % of control.

And the T/C (dose: 200.0 mg/kg/injection, schedule: Q01DX009 (ip), vehicle: Klucel (hydroxypropylcellulose) (HPC))?
The T/C was 105 % of control.
